Source: patent EP0603160A2, “Compositions for in-situ active compound assembly” (SCRIPPS CLINIC AND RESEARCH FOUNDATION, priority 1986, dated 1988)
Read-outs that look alike come from different tables or passages of the source.

Tests used:
Ox blood erythrocytes = assay: Erythrocyte killing with or without 1% serum, light scattering; format: cell-based; conditions: for mortality at 1.4 µM / mortality at 2 µM / mortality at 2.8 µM / mortality at 4 µM / mortality at 5.6 µM / mortality at 8 µM / mortality at 11.2 µM / mortality at 16 µM / mortality at 22.4 µM / mortality at 32 µM / mortality at 1 µM: Bos taurus, Erythrocyte, 1 h; for mortality at 1.4 µM: DIOG 1.4 µM; for mortality at 2.8 µM: DIOG 2.8 µM; for mortality at 4 µM: DIOG 4 µM; for mortality at 5.6 µM: DIOG 5.6 µM; for mortality at 11.2 µM: DIOG 11.2 µM; for mortality at 22.4 µM: DIOG 22.4 µM; for mortality at 32 µM: DIOG 32 µM; for mortality at 1 µM: DIOG 1 µM
Procedure: Ox blood erythrocytes were incubated for one hour in PBS at pH 6.6 in the presence or absence of 1% serum at 37°C. […] However, at 4-16 µM DIOG, the percentage of cells killed increased from 4.3 to 60.9. On the other hand, in the absence of serum, 7.2.% cells were killed even without the addition of DIOG, and a steady increase in killing occurred as the DIOG concentration increased, reaching 100% of cells killed at 8 µM.
The AOG concentration was maintained at a high level (448 µM) and the decanal concentration varied from 0-16 µM corresponding the previous DIOG concentration range. In this protocol, similar results were obtained for cells incubated in the absence of serum, but in the presence of 1% serum the curve was slightly displaced so that the cells appeared more protected as shown in Table 4.

human erythrocytes = assay: Erythrocyte lysis (light scattering, hemoglobin release, cell counts); format: cell-based
Procedure: The putative product shown in Reaction Scheme 1 is evidently cytotoxic, since a suspension of human erythrocytes in a solution containing both CHD and DAPG in phosphate buffered saline is 95% lysed or aggregated within 1-14 hours under physiological conditions (the precise time depending on the concentrations) whereas erythrocytes are stable for at least 24 hours in plain PBS, and also in solutions containing either DAPG or CHD alone. In addition, when erythrocytes are incubated with mixtures of CHD and DAPG, a substantial induction period is observed during which no lysis or aggregation occurs, due to the time lag in formation of the cytotoxic material. Whether lysis or aggregation results depends on relative concentration; excess CHD results in lysis, equimolar concentrations in aggregation. The cytotoxicity may be due to the formation of the polycation, analogous to the known antitumor activity of poly-(L-lysine); Arnold, L. J. Proc. Natl Acad Sci (supra).
For erythrocytes blood was collected and stored with KEDTA at 4°C and erythrocytes prepared within 48 hours by centrifuging three times in phosphate-buffered saline (PBS, pH 7.4). Suspensions containing 3 x 10⁷ cells/ml were prepared in PBS containing 1% EtOH, but no […] cations, and incubated at 37°C with the compounds or mixtures to be tested.
On the other hand, while a mixture of 28 µM AOG and 28 µM decanal (reagent grade, Aldrich Chemical Co.) results in less than 10% lysis within the same 20 minute time frame, as the time of incubation increases, lysis increases also, as indicated by hemoglobin release measured by (1) light absorption of the supernatant at 400 nm. (2) decrease of light scattering by the cells at 700 nm, and (3) direct cell counts using a microscope. […] Suspensions of 3.5 x 10⁷ cells/ml prepared as above in PBS (1% EtOH, no divalent cations, pH 7.4) were incubated at 37°C, and cell lysis was followed by observing the decrease in absorbance at 700 nm. For 0% lysis, A₇₀₀ is 1.0; 0.2 for 100% lysis).
The curves were calculated using a nonlinear least squares fitting algorithm (Arc, H, et al, Statistical Methods (1970) Harper & Row, pp. 100-111) and based on a modified Hill equation (Cantor, C.R. et al, supra) wherein percent hemolysis is calculated as 100% divided by (1+(K/C))^α [formula] . In this equation, K is the median effect concentration, C is the concentration of DIOG (or of decanal and AOG), and α is the Hill constant.

[1] = pH 6.6, similar experiment (Table 3), read-out: % Cells Killed (0% Serum)
[2] = pH 6.6, similar experiment (Table 3), read-out: % Cells Killed (1% Serum)
[3] = one hour, PBS pH 6.6, 37°C (second Table 2), read-out: % cells killed (0% serum)
[4] = one hour, PBS pH 6.6, 37°C (second Table 2), read-out: % cells killed (1% serum)

**Q.** With CCCCCCCCCC=NNC(=N)NCCCCCCCC [DIOG, N-1-decylidenimino-N'-octylguanidine] as the compound, how does the mortality at 1.4 µM (Ox blood erythrocytes; [1]) read?
**A.** 1.3%

**Q.** And the mortality at 1.4 µM (Ox blood erythrocytes; [2])?
**A.** 0%

**Q.** And the mortality at 2 µM (Ox blood erythrocytes; pH 6.6, DIOG 2 µM, similar experiment (Table 3), read-out: % Cells Killed (0% Serum))?
**A.** 17.9%

**Q.** What about the mortality at 2 µM (Ox blood erythrocytes; pH 6.6, DIOG 2 µM, similar experiment (Table 3), read-out: % Cells Killed (1% Serum)) of the same compound?
**A.** 5.1%

**Q.** What about the mortality at 2.8 µM (Ox blood erythrocytes; [1]) of the same compound?
**A.** 17.9%

**Q.** And the mortality at 2.8 µM (Ox blood erythrocytes; [2])?
**A.** 9%

**Q.** What about the mortality at 4 µM (Ox blood erythrocytes; [1]) of the same compound?
**A.** 48.7%

**Q.** And the mortality at 4 µM (Ox blood erythrocytes; [2])?
**A.** 11.5%

**Q.** And the mortality at 5.6 µM (Ox blood erythrocytes; [1])?
**A.** 91%

**Q.** And the mortality at 5.6 µM (Ox blood erythrocytes; [2])?
**A.** 16.7%

**Q.** What about the mortality at 8 µM (Ox blood erythrocytes; pH 6.6, DIOG 8 µM, similar experiment (Table 3), read-out: % Cells Killed (0% Serum)) of the same compound?
**A.** 100%

**Q.** What about the mortality at 8 µM (Ox blood erythrocytes; pH 6.6, DIOG 8 µM, similar experiment (Table 3), read-out: % Cells Killed (1% Serum)) of the same compound?
**A.** 35.9%

**Q.** What about the mortality at 11.2 µM (Ox blood erythrocytes; [1]) of the same compound?
**A.** 100%

**Q.** What about the mortality at 11.2 µM (Ox blood erythrocytes; [2]) of the same compound?
**A.** 37.2%

**Q.** What about the mortality at 16 µM (Ox blood erythrocytes; pH 6.6, DIOG 16 µM, similar experiment (Table 3), read-out: % Cells Killed (0% Serum)) of the same compound?
**A.** 100%

**Q.** What about the mortality at 16 µM (Ox blood erythrocytes; pH 6.6, DIOG 16 µM, similar experiment (Table 3), read-out: % Cells Killed (1% Serum)) of the same compound?
**A.** 51.3%

**Q.** What about the mortality at 22.4 µM (Ox blood erythrocytes; [1]) of the same compound?
**A.** 100%

**Q.** What about the mortality at 22.4 µM (Ox blood erythrocytes; [2]) of the same compound?
**A.** 100%

**Q.** What about the mortality at 32 µM (Ox blood erythrocytes; [1]) of the same compound?
**A.** 100%

**Q.** And the mortality at 32 µM (Ox blood erythrocytes; [2])?
**A.** 98.7%

**Q.** And the mortality at 1 µM (Ox blood erythrocytes; [3])?
**A.** 10.1%

**Q.** And the mortality at 1 µM (Ox blood erythrocytes; [4])?
**A.** 0%

**Q.** What about the mortality at 2 µM (Ox blood erythrocytes; DIOG 2 µM, one hour, PBS pH 6.6, 37°C (second Table 2), read-out: % cells killed (0% serum)) of the same compound?
**A.** 29%

**Q.** What about the mortality at 2 µM (Ox blood erythrocytes; DIOG 2 µM, one hour, PBS pH 6.6, 37°C (second Table 2), read-out: % cells killed (1% serum)) of the same compound?
**A.** 0%

**Q.** What about the mortality at 4 µM (Ox blood erythrocytes; [3]) of the same compound?
**A.** 47.8%

**Q.** What about the mortality at 4 µM (Ox blood erythrocytes; [4]) of the same compound?
**A.** 4.3%

**Q.** What about the mortality at 8 µM (Ox blood erythrocytes; DIOG 8 µM, one hour, PBS pH 6.6, 37°C (second Table 2), read-out: % cells killed (0% serum)) of the same compound?
**A.** 100%

**Q.** What about the mortality at 8 µM (Ox blood erythrocytes; DIOG 8 µM, one hour, PBS pH 6.6, 37°C (second Table 2), read-out: % cells killed (1% serum)) of the same compound?
**A.** 29%

**Q.** What about the mortality at 16 µM (Ox blood erythrocytes; DIOG 16µM, one hour, PBS pH 6.6, 37°C (second Table 2), read-out: % cells killed (0% serum)) of the same compound?
**A.** 100%

**Q.** What about the mortality at 16 µM (Ox blood erythrocytes; DIOG 16µM, one hour, PBS pH 6.6, 37°C (second Table 2), read-out: % cells killed (1% serum)) of the same compound?
**A.** 60.9%

**Q.** What about the “% cells killed (1% serum)” value (Ox blood erythrocytes; DIOG 2 µM, one hour, PBS pH 6.6, 37°C (second Table 2)) of the same compound?
**A.** no cell killing

**Q.** What about the “% cells killed (0% serum)” value (Ox blood erythrocytes; DIOG 8 µM, one hour, PBS pH 6.6, 37°C (second Table 2), 60 min) of the same compound?
**A.** 100%

**Q.** And the lysis (human erythrocytes; 14 µM DIOG previously prepared, in 20 minutes, 37°C)?
**A.** complete lysis

**Q.** What about the EC50 (human erythrocytes; Erythrocyte, hemoglobin release from human erythrocytes, absorption at 400 nm, modified Hill equation fit, Figure 4, read-out: median effect concentration) of the same compound?
**A.** 6.2 µM
